From article PMC9976286, “Combination of In Silico and In Vitro Screening to Identify Novel Glutamate Carboxypeptidase II Inhibitors” (Journal of Chemical Information and Modeling, 2023)

Target: T1, Recombinant human GCPII (Homo sapiens, UniProt Q04609)
T1 construct: made in house
Test: In vitro GCPII inhibition assay, fluorescence-based, RP-HPLC readout (screening at 20 μM and IC50)
Type: biochemical
Details: compound at 20 μM; 100 nM fluorescein-labeled Glu-Glu dipeptide substrate
Experimental: The inhibitory potency of the selected compounds against GCPII was determined using a fluorescence-based assay developed in-house. Recombinant human GCPII purified as described previously[40],[41] (final concentration 0.02 nM) was preincubated with 20 μM test compound for the screening in 50 mM Tris-HCl, 150 mM NaCl, 0.001% C12E8 at 37 °C for 10 min. The reaction was initiated by the addition of 100 nM Glu-Glu dipeptide labeled with fluorescein (substrate)[42] in a total volume of 50 μL. Following 15 min incubation, the reaction was terminated by the addition of 5 μL of 0.1% TFA in 5% acetonitrile. […] The data were fitted using the GraphPad Prism software, and IC50 values were calculated from the inhibition curves of two independent experiments using a nonlinear analysis protocol.

T1 sequence (Q04609 whole entry): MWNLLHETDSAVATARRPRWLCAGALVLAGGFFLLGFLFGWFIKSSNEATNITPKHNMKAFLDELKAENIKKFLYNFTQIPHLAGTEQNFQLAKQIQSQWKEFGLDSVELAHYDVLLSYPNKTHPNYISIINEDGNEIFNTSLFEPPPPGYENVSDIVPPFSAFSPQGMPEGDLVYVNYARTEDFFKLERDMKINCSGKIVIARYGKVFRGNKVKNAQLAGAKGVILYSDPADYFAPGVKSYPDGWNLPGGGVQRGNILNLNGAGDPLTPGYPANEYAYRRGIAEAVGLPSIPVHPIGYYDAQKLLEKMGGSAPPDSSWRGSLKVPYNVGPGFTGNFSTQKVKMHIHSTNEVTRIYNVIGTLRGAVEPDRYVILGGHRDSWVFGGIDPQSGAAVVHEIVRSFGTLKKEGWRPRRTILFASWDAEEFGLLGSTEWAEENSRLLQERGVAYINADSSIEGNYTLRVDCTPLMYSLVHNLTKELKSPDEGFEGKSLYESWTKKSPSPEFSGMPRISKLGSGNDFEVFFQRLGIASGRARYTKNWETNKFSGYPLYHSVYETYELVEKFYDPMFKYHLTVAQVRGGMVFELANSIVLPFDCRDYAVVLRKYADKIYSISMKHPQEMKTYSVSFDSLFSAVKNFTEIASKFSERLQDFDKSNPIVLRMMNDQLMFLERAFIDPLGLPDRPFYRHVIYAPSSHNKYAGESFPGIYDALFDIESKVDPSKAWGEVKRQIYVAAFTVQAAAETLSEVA

| Inhibition [%] of GCPII activity | SMILES |
| --- | --- |
| 38% | CC(C)(CC(=O)Nc1scc(-c2cccs2)c1C(=O)O)CC(=O)Nc1scc(-c2cccs2)c1C(=O)O [Compound 22] |
| 33% | O=C(O)c1cc(C(=O)O)c(C(=O)O)cc1C(=O)O [Compound 24] |
| 29% | Nc1cc(N)c(C(=O)O)cc1C(=O)O [Compound 28] |

| SMILES | Inhibition [%] of GCPII activity |
| --- | --- |
| O=C(O)c1ccc(CN2CC(C(=O)O)CC2=O)cc1 (stereo not shown) [Compound 45] | 1% |

Same assay, conditions: compound at 20 μM; 100 nM fluorescein-labeled Glu-Glu dipeptide substrate; read-out: Inhibition [%] of GCPII activity

| inhibition at 20 µM | SMILES |
| --- | --- |
| 0% | O=C(O)CCNC(=O)C(F)(F)C(F)(F)C(=O)NCCC(=O)O [Compound 1] |
| 0% | O=C(O)c1ccc(NC(=O)c2ccccc2C(=O)O)cc1O [Compound 2] |
| 11% | Cc1sc(NC(=O)CC(C)(C)CC(=O)Nc2sc(C)c(C)c2C(=O)O)c(C(=O)O)c1C [Compound 3] |
| 2% | COc1ccc(N(CCC(=O)O)CCC(=O)O)cc1OC [Compound 4] |
| 3% | O=C(O)CSc1nnnn1-c1ccc(C(=O)O)cc1 [Compound 5] |
| 4% | Cc1sc(NC(=O)c2cc(C(=O)O)ccc2C(=O)O)c(C#N)c1C [Compound 6] |
| 12% | O=C(O)CCN(CCC(=O)O)c1ccccc1O [Compound 7] |
| 1% | COc1ccc([C@H](C)NC(=O)c2cc(C(=O)O)ccc2C(=O)O)cc1 [Compound 8] |
| 0% | O=C(O)CCC(=O)Nc1cc(C(=O)O)ccc1Br [Compound 9] |
| 0% | O=C(O)CCCC(=O)Nc1ccc(C(=O)O)cc1 [Compound 10] |
| 0% | O=C(O)c1cccc(NC(=O)[C@H]2CC=CC[C@H]2C(=O)O)c1 [Compound 11] |
| 0% | COc1ccc(OC)c(NC(=O)c2ccc(C(=O)O)cc2C(=O)O)c1 [Compound 12] |
| 0% | COc1ccc(Cl)cc1NC(=O)c1ccc(C(=O)O)cc1C(=O)O [Compound 13] |
| 0% | O=C(O)c1ccccc1CN[C@@H](Cc1c[nH]c2ccccc12)C(=O)O [Compound 14] |
| 13% | N#Cc1c(NC(=O)c2ccc(C(=O)O)cc2C(=O)O)sc2c1CCCC2 [Compound 15] |
| 0% | CCOc1ccc(NC(=O)c2cc(C(=O)O)ccc2C(=O)O)cc1 [Compound 16] |
| 0% | O=C(O)CN[S@TB17](=O)(=O)c1ccc(C(=O)O)cc1 [Compound 19] |
| 8% | O=C(O)Cn1c(COCc2nc3ccccc3n2CC(=O)O)nc2ccccc21 [Compound 20] |
| 1% | O=C(O)CSc1nc2ccccc2n1CC(=O)O [Compound 21] |
| > 25% | CC(C)(CC(=O)Nc1scc(-c2cccs2)c1C(=O)O)CC(=O)Nc1scc(-c2cccs2)c1C(=O)O [Compound 22] |
| 11% | O=C(O)CSc1ncccc1C(=O)O [Compound 23] |
| > 25% | O=C(O)c1cc(C(=O)O)c(C(=O)O)cc1C(=O)O [Compound 24] |

| inhibition at 20 µM | SMILES |
| --- | --- |
| 0% | O=C(O)CN1CCC(C(=O)O)CC1 [Compound 25] |
| 18% | CC(C)(CC(=O)Nc1scc(-c2ccccc2)c1C(=O)O)CC(=O)Nc1scc(-c2ccccc2)c1C(=O)O [Compound 26] |
| 18% | O=C(O)CCN(CCC(=O)O)c1ccc(/C=C/c2ccnc3ccccc23)cc1 [Compound 27] |
| > 25% | Nc1cc(N)c(C(=O)O)cc1C(=O)O [Compound 28] |
| 0% | Cc1cc(-c2ccc(NC(=O)CCC(=O)O)c(C)c2)ccc1NC(=O)CCC(=O)O [Compound 29] |
| 0% | O=C(NCCCCCCNC(=O)[C@H]1CCCC[C@H]1C(=O)O)[C@H]1CCCC[C@H]1C(=O)O [Compound 30] |
| 8% | O=C(O)c1ccc(CNCc2ccccc2C(=O)O)cc1 [Compound 31] |
| 1% | O=C(O)CN[S@TB17](=O)(=O)c1cccc(C(=O)O)c1 [Compound 32] |
| 0% | O=C(O)CNc1ccc(C(=O)O)cc1 [Compound 33] |
| 2% | O=C(O)c1ccccc1NC(=O)[C@@H](O)[C@H](O)C(=O)O [Compound 34] |
| 1% | O=C(O)CCCC(=O)Nc1cccc(C(=O)O)c1 [Compound 35] |
| 3% | O=C(O)c1ccc(C(=O)NCCc2ccccc2)c(C(=O)O)c1 [Compound 36] |
| 1% | O=C(O)c1ccc(C(=O)NCc2ccccc2)c(C(=O)O)c1 [Compound 37] |
| 0% | CC(=O)c1ccc(NC(=O)c2ccc(C(=O)O)cc2C(=O)O)cc1 [Compound 38] |
| 10% | CCCCc1ccc(NC(=O)c2ccc(C(=O)O)cc2C(=O)O)cc1 [Compound 39] |
| 4% | O=C(O)c1ccc(C(=O)Nc2cc(Cl)ccc2Cl)c(C(=O)O)c1 [Compound 40] |
| 0% | O=C(O)c1ccc(C(=O)Nc2ccc(Oc3ccccc3)cc2)c(C(=O)O)c1 [Compound 41] |
| 1% | COc1ccc([S@TB4](=O)(=O)Oc2ccc(C(=O)O)cc2)cc1 [Compound 42] |
| 0% | COc1cc(C(=O)O)ccc1O[S@TB17](=O)(=O)c1ccc(F)cc1 [Compound 44] |
| 24% | Cc1c(C)c(CC(C(=O)O)C(=O)O)c(C)c(C)c1CC(C(=O)O)C(=O)O [Compound 47] |
| 16% | O=C(/C=C/c1ccccc1)Oc1cc([S@TB3](=O)(=O)O)cc2cc([S@TB3](=O)(=O)O)ccc12 [Compound 48] |
| 15% | CCCCc1nc(Cl)c(C(=O)O)n1Cc1ccc(-c2ccccc2-c2nnn[nH]2)s1 [Compound 49] |

Same assay, conditions: read-out: Inhibition [%] of GCPII activity

| SMILES | inhibition at 20 µM |
| --- | --- |
| O=[N+]([O-])c1ccc([S@TB4](=O)(=O)Oc2cccc(O[S@TB17](=O)(=O)c3ccc([N+](=O)[O-])cc3)c2)cc1 [Compound 43] | 1% |
| O=[N+]([O-])c1ccc([S@TB4](=O)(=O)Oc2ccc(O[S@TB17](=O)(=O)c3ccc([N+](=O)[O-])cc3)c(Br)c2)cc1 [Compound 50] | 1% |

System: GCPII
Test: not given
Details: dataset of 54 GCPII ligands compiled from the PDB; read-out: IC50[nM] (54 actives, PDB ID); cited from earlier work

| SMILES | IC50 |
| --- | --- |
| N[C@@H](Cn1oc(=O)[nH]c1=O)C(=O)O [Compound 2JBK] | 9500 nM |

Same assay, conditions: listed by ChEMBL ID or PDB ID; read-out: GCPII IC50 (Fig. S20, inhibitors with subnanomolar activities); cited from earlier work

| SMILES | IC50 |
| --- | --- |
| O=C(O)CC[C@H](NP(=O)(O)O)C(=O)O [CHEMBL241779] | 0.86 nM |
| N[C@@H](CCC(=O)N[C@@H](COP(=O)(O)O[C@@H](CCC(=O)O)C(=O)O)C(=O)O)C(=O)O [CHEMBL1289263] | 0.55 nM |
| O=C(O)CC[C@H](NP(=O)(O)OC[C@H](NC(=O)CC[C@H](NC(=O)CCCCCNC(=O)c1ccc(-c2c3ccc(=O)cc-3oc3cc(O)ccc23)c(C(=O)O)c1)C(=O)O)C(=O)O)C(=O)O [CHEMBL1921899] | 0.41 nM |
| O=C(O)CC[C@H](NC(=O)N[C@@H](CCCC(=O)Nc1cccc(F)c1)C(=O)O)C(=O)O [CHEMBL4277729] | 0.28 nM |
| CN(Cc1ccc(F)cc1)C(=O)CCC[C@H](NC(=O)N[C@@H](CCC(=O)O)C(=O)O)C(=O)O [CHEMBL4283406] | 0.64 nM |
| O=C(O)CC[C@H](NC(=O)N[C@@H](CCCC(=O)N(CCNC(=O)c1ccc(F)cc1)c1ccccc1)C(=O)O)C(=O)O [CHEMBL4286872] | 0.15 nM |
| CN(C(=O)CCC[C@H](NC(=O)N[C@@H](CCC(=O)O)C(=O)O)C(=O)O)c1ccc(F)cc1 [CHEMBL4288368] | 0.2 nM |
| CN(Cc1cccc(F)c1)C(=O)CCC[C@H](NC(=O)N[C@@H](CCC(=O)O)C(=O)O)C(=O)O [CHEMBL4291245] | 0.46 nM |
| O=C(O)CC[C@H](NC(=O)N[C@@H](CCCC(=O)NCCNC(=O)c1ccc(F)cc1)C(=O)O)C(=O)O [CHEMBL4294773] | 0.94 nM |
